Measured values: ChEMBL document CHEMBL1201861, “Genomics of Drug Sensitity in Cancer screening data, Wellcome Trust Sanger Institute”

Experiments:
Assay in all cases: cells
Assay type in all cases: functional, cell-based
Conditions in all cases: Homo sapiens
KP-N-YS = test system: KP-N-YS;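 note: cell viability assay measuring inhibition of cell line growth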
Description: SANGER: Inhibition of human KP-N-YS cell growth in a cell viability assay.

DEL = test system: DEL;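 note: growth inhibition of the human DEL cell line, read out with a cell viability assay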
Description: SANGER: Inhibition of human DEL cell growth in a cell viability assay.

CGTH-W-1 = test system: CGTH-W-1;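 note: growth inhibition of human CGTH-W-1 cells measured by cell viability assay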
Description: SANGER: Inhibition of human CGTH-W-1 cell growth in a cell viability assay.

LC-2-ad = test system: LC-2-ad;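 note: growth inhibition of human LC-2-ad cells, read out with a cell viability assay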
Description: SANGER: Inhibition of human LC-2-ad cell growth in a cell viability assay.

DJM-1 = test system: DJM-1;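 note: growth inhibition of human DJM-1 cells, read out by a cell viability assay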
Description: SANGER: Inhibition of human DJM-1 cell growth in a cell viability assay.

TE-12 = test system: TE-12;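 note: growth inhibition of TE-12 cells, read out by a cell viability assay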
Description: SANGER: Inhibition of human TE-12 cell growth in a cell viability assay.

CTB-1 = test system: CTB-1
Description: SANGER: Inhibition of human CTB-1 cell growth in a cell viability assay.

BE-13 = test system: BE-13;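 note: growth inhibition of human BE-13 cells, measured with a cell viability assay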
Description: SANGER: Inhibition of human BE-13 cell growth in a cell viability assay.

D283 Med = test system: D283 Med
Description: SANGER: Inhibition of human D-283MED cell growth in a cell viability assay.

NCI-H209 = test system: NCI-H209;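 note: growth inhibition of human NCI-H209 cells, measured by a cell viability assay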
Description: SANGER: Inhibition of human NCI-H209 cell growth in a cell viability assay.

EW-18 = test system: EW-18;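 note: growth inhibition of EW-18 cells, read out by a cell viability assay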
Description: SANGER: Inhibition of human EW-18 cell growth in a cell viability assay.

CTV-1 = test system: CTV-1;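 note: growth inhibition of the cell line, read out with a cell viability assay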
Description: SANGER: Inhibition of human CTV-1 cell growth in a cell viability assay.

GOTO = test system: GOTO;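 note: growth inhibition of GOTO cells, read out by a cell viability assay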
Description: SANGER: Inhibition of human GOTO cell growth in a cell viability assay.

D-502MG = test system: D-502MG
Description: SANGER: Inhibition of human D-502MG cell growth in a cell viability assay.

Calu-6 = test system: Calu-6;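 note: growth of human Calu-6 cells, read out by a cell viability assay, IC50 marking inhibition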
Description: SANGER: Inhibition of human Calu-6 cell growth in a cell viability assay.

GCIY = test system: GCIY;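 note: growth inhibition of the human GCIY cell line, read out by a cell viability assay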
Description: SANGER: Inhibition of human GCIY cell growth in a cell viability assay.

TE-8 = test system: TE-8;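 note: growth inhibition of TE-8 cells, measured with a cell viability readout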
Description: SANGER: Inhibition of human TE-8 cell growth in a cell viability assay.

SK-LMS-1 = test system: SK-LMS-1;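 note: growth inhibition of human SK-LMS-1 cells, read out with a cell viability assay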
Description: SANGER: Inhibition of human SK-LMS-1 cell growth in a cell viability assay.

HD-MY-Z = test system: HD-MY-Z;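 note: growth inhibition of HD-MY-Z cells, read out with a cell viability assay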
Description: SANGER: Inhibition of human HD-MY-Z cell growth in a cell viability assay.

OMC-1 = test system: OMC-1;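 note: growth inhibition of the OMC-1 cell line, measured by a cell viability assay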
Description: SANGER: Inhibition of human OMC-1 cell growth in a cell viability assay.

MFM-223 = test system: MFM-223
Description: SANGER: Inhibition of human MFM-223 cell growth in a cell viability assay.

SW684 = test system: SW684;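 note: growth inhibition of human SW684 cells, measured by a cell viability assay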
Description: SANGER: Inhibition of human SW684 cell growth in a cell viability assay.

MEG-01 = test system: MEG-01;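 note: growth inhibition of MEG-01 cells, read out by a cell viability assay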
Description: SANGER: Inhibition of human MEG-01 cell growth in a cell viability assay.

NOMO-1 = test system: NOMO-1;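 note: growth inhibition of human NOMO-1 cells measured by a cell viability assay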
Description: SANGER: Inhibition of human NOMO-1 cell growth in a cell viability assay.

ES7 = test system: ES7;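 note: growth inhibition of cultured human ES7 cells, read out as cell viability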
Description: SANGER: Inhibition of human ES7 cell growth in a cell viability assay.

NCI-H1581 = test system: NCI-H1581;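 note: cell growth inhibition read out by a viability assay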
Description: SANGER: Inhibition of human NCI-H1581 cell growth in a cell viability assay.

LS-513 = test system: LS-513
Description: SANGER: Inhibition of human LS-513 cell growth in a cell viability assay.

HDLM-2 = test system: HDLM-2;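 note: cell viability assay measuring suppression of HDLM-2 proliferation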
Description: SANGER: Inhibition of human HDLM-2 cell growth in a cell viability assay.

CP66-MEL = test system: CP66-MEL;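 note: growth inhibition of CP66-MEL cells determined in a cell viability assay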
Description: SANGER: Inhibition of human CP66-MEL cell growth in a cell viability assay.

NCI-H1155 = test system: NCI-H1155;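 note: cell growth inhibition measured by a viability assay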
Description: SANGER: Inhibition of human NCI-H1155 cell growth in a cell viability assay.

NTERA-2-cl-D1 = test system: NTERA-2-cl-D1;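 note: inhibition of cell growth, measured with a cell viability assay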
Description: SANGER: Inhibition of human NTERA-S-cl-D1 cell growth in a cell viability assay.

BB49-HNC = test system: BB49-HNC;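 note: cell viability assay read-out, reported as inhibition of BB49-HNC cell growth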
Description: SANGER: Inhibition of human BB49-HNC cell growth in a cell viability assay.

MZ1-PC = test system: MZ1-PC;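 note: cell viability assay measuring growth inhibition of human MZ1-PC cells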
Description: SANGER: Inhibition of human MZ1-PC cell growth in a cell viability assay.

NEC8 = test system: NEC8;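 note: growth inhibition of human NEC8 cells, read out by a cell viability assay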
Description: SANGER: Inhibition of human NEC8 cell growth in a cell viability assay.

SBC-1 = test system: SBC-1;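 note: cell viability assay measuring growth inhibition of the SBC-1 cell line, IC50 being the concentration that halves growth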
Description: SANGER: Inhibition of human SBC-1 cell growth in a cell viability assay.

DB = test system: DB
Description: SANGER: Inhibition of human DB cell growth in a cell viability assay.

NOS-1 = test system: NOS-1;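 note: growth inhibition of the human NOS-1 cell line, read out with a cell viability assay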
Description: SANGER: Inhibition of human NOS-1 cell growth in a cell viability assay.

Mo = test system: Mo
Description: SANGER: Inhibition of human Mo-T cell growth in a cell viability assay.

A704 = test system: A704;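 note: growth inhibition of human A704 cells, read out with a cell viability assay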
Description: SANGER: Inhibition of human A704 cell growth in a cell viability assay.

COLO-684 = test system: COLO-684
Description: SANGER: Inhibition of human COLO-684 cell growth in a cell viability assay.

HT-144 = test system: HT-144
Description: SANGER: Inhibition of human HT-144 cell growth in a cell viability assay.

EW-1 = test system: EW-1;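 note: growth inhibition of the human EW-1 cell line, read out by a cell viability assay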
Description: SANGER: Inhibition of human EW-1 cell growth in a cell viability assay.

EOL1 = test system: EOL1;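 note: growth inhibition of EoL-1 cells, read out by a cell viability assay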
Description: SANGER: Inhibition of human EoL-1-cell cell growth in a cell viability assay.

KE-37 = test system: KE-37;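 note: growth inhibition of KE-37 cells, read out with a cell viability assay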
Description: SANGER: Inhibition of human KE-37 cell growth in a cell viability assay.

HCC1187 = test system: HCC1187;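 note: growth inhibition of HCC1187 cells, read out with a cell viability assay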
Description: SANGER: Inhibition of human HCC1187 cell growth in a cell viability assay.

CW-2 = test system: CW-2;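 note: growth inhibition of CW-2 cells, read out by a cell viability assay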
Description: SANGER: Inhibition of human CW-2 cell growth in a cell viability assay.

RH-1 = test system: RH-1;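 note: growth inhibition of human RH-1 cells, read out with a cell viability assay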
Description: SANGER: Inhibition of human RH-1 cell growth in a cell viability assay.

HC-1 = test system: HC-1;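 note: growth inhibition of HC-1 cells measured by a cell viability assay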
Description: SANGER: Inhibition of human HC-1 cell growth in a cell viability assay.

MC116 = test system: MC116;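 note: growth inhibition of MC116 cells, read out with a cell viability assay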
Description: SANGER: Inhibition of human MC116 cell growth in a cell viability assay.

MZ7-mel = test system: MZ7-mel;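 note: growth inhibition of human MZ7-mel cells, measured by a cell viability assay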
Description: SANGER: Inhibition of human MZ7-mel cell growth in a cell viability assay.

EW-16 = test system: EW-16;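 note: growth inhibition of human EW-16 cells, read out as cell viability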
Description: SANGER: Inhibition of human EW-16 cell growth in a cell viability assay.

IST-SL1 = test system: IST-SL1;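 note: growth inhibition of human IST-SL1 cells, read out with a cell viability assay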
Description: SANGER: Inhibition of human IST-SL1 cell growth in a cell viability assay.

KARPAS-45 = test system: KARPAS-45;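 note: inhibition of cell line growth, read out through a viability assay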
Description: SANGER: Inhibition of human KARPAS-45 cell growth in a cell viability assay.

EW-24 = test system: EW-24;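 note: human EW-24 cancer cell line, growth inhibition read out via a cell viability assay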
Description: SANGER: Inhibition of human EW-24 cell growth in a cell viability assay.

SW 962 = test system: SW 962;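 note: growth inhibition of human SW962 cells, read out by a cell viability assay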
Description: SANGER: Inhibition of human SW962 cell growth in a cell viability assay.

NMC-G1 = test system: NMC-G1;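 note: growth inhibition of the NMC-G1 cell line, measured with a cell viability read-out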
Description: SANGER: Inhibition of human NMC-G1 cell growth in a cell viability assay.

KNS-42 = test system: KNS-42;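 note: growth inhibition of KNS-42 cells, read out with a cell viability assay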
Description: SANGER: Inhibition of human KNS-42 cell growth in a cell viability assay.

MZ2-MEL = test system: MZ2-MEL;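 note: growth inhibition of MZ2-MEL cells read out with a cell viability assay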
Description: SANGER: Inhibition of human MZ2-MEL cell growth in a cell viability assay.

ES5 = test system: ES5;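 note: growth inhibition of human ES5 cells, read out by a cell viability assay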
Description: SANGER: Inhibition of human ES5 cell growth in a cell viability assay.

SW872 = test system: SW872
Description: SANGER: Inhibition of human SW872 cell growth in a cell viability assay.

JVM-2 = test system: JVM-2
Description: SANGER: Inhibition of human JVM-2 cell growth in a cell viability assay.

RPMI-8226 = test system: RPMI-8226
Description: SANGER: Inhibition of human RPMI-8226 cell growth in a cell viability assay.

RS4-11 = test system: RS4-11
Description: SANGER: Inhibition of human RS4-11 cell growth in a cell viability assay.

RKO = test system: RKO
Description: SANGER: Inhibition of human RKO cell growth in a cell viability assay.

SK-N-DZ = test system: SK-N-DZ
Description: SANGER: Inhibition of human SK-N-DZ cell growth in a cell viability assay.

LAMA-84 = test system: LAMA-84
Description: SANGER: Inhibition of human LAMA-84 cell growth in a cell viability assay.

In the case of `O=c1[nH]c2ccccc2n1C1CCN(Cc2ccc(-c3nc4cc5[nH]cnc5cc4nc3-c3ccccc3)cc2)CC1`, the IC50 (KP-N-YS) is reported as greater than 2.56 µM, the IC50 (DEL) is reported as greater than 2.56 µM and the IC50 (CGTH-W-1) is reported as greater than 2.56 µM. It also gave an IC50 (LC-2-ad) greater than 2.56 µM, an IC50 (DJM-1) greater than 2.56 µM and an IC50 (TE-12) greater than 2.56 µM. For the same compound, the IC50 (CTB-1) was greater than 2.56 µM, the IC50 (BE-13) was greater than 2.56 µM and the IC50 (D283 Med) was greater than 2.56 µM. It also gave an IC50 (NCI-H209) greater than 2.56 µM, an IC50 (EW-18) greater than 2.56 µM and an IC50 (CTV-1) greater than 2.56 µM. It also gave an IC50 (GOTO) greater than 2.56 µM, an IC50 (D-502MG) greater than 2.56 µM and an IC50 (Calu-6) greater than 2.56 µM. The IC50 (GCIY) was greater than 2.56 µM, the IC50 (TE-8) was greater than 2.56 µM and the IC50 (SK-LMS-1) was greater than 2.56 µM. The IC50 (HD-MY-Z) was greater than 2.56 µM, the IC50 (OMC-1) was greater than 2.56 µM and the IC50 (MFM-223) was greater than 2.56 µM. The IC50 (SW684) was greater than 2.56 µM, the IC50 (MEG-01) was greater than 2.56 µM and the IC50 (NOMO-1) was greater than 2.56 µM. It also gave an IC50 (ES7) of 1.35 µM, an IC50 (NCI-H1581) greater than 2.56 µM and an IC50 (LS-513) greater than 2.56 µM. The IC50 (HDLM-2) was greater than 2.56 µM, the IC50 (CP66-MEL) was greater than 2.56 µM and the IC50 (NCI-H1155) was greater than 2.56 µM. For the same compound, the IC50 (NTERA-2-cl-D1) was greater than 2.56 µM, the IC50 (BB49-HNC) was greater than 2.56 µM and the IC50 (MZ1-PC) was greater than 2.56 µM. The IC50 (NEC8) was greater than 2.56 µM, the IC50 (SBC-1) was greater than 2.56 µM and the IC50 (DB) was greater than 2.56 µM. It also gave an IC50 (NOS-1) of 1.37 µM, an IC50 (Mo) greater than 2.56 µM and an IC50 (A704) greater than 2.56 µM. It also gave an IC50 (COLO-684) greater than 2.56 µM, an IC50 (HT-144) greater than 2.56 µM and an IC50 (EW-1) greater than 2.56 µM. It also gave an IC50 (EOL1) greater than 2.56 µM, an IC50 (KE-37) of 1.84 µM and an IC50 (HCC1187) greater than 2.56 µM. The IC50 (CW-2) was greater than 2.56 µM, the IC50 (RH-1) was greater than 2.56 µM and the IC50 (HC-1) was greater than 2.56 µM. The IC50 (MC116) was greater than 2.56 µM, the IC50 (MZ7-mel) was greater than 2.56 µM and the IC50 (EW-16) was greater than 2.56 µM. It also gave an IC50 (IST-SL1) greater than 2.56 µM, an IC50 (KARPAS-45) greater than 2.56 µM and an IC50 (EW-24) greater than 2.56 µM. It also gave an IC50 (SW 962) greater than 2.56 µM, an IC50 (NMC-G1) greater than 2.56 µM and an IC50 (KNS-42) greater than 2.56 µM. For the same compound, the IC50 (MZ2-MEL) was greater than 2.56 µM, the IC50 (ES5) was greater than 2.56 µM and the IC50 (SW872) was greater than 2.56 µM. It also gave an IC50 (JVM-2) greater than 2.56 µM, an IC50 (RPMI-8226) greater than 2.56 µM and an IC50 (RS4-11) greater than 2.56 µM. The IC50 (RKO) was greater than 2.56 µM, the IC50 (SK-N-DZ) was greater than 2.56 µM and the IC50 (LAMA-84) was greater than 2.56 µM.

In the case of `COc1cc(C)c(Sc2cnc(NC(=O)c3ccc(CNC(C)C(C)(C)C)cc3)s2)cc1C(=O)N1CCN(C(C)=O)CC1` (configuration not stated), the IC50 (KP-N-YS) is reported as greater than 10.2 µM, the IC50 (DEL) is reported as greater than 10.2 µM and the IC50 (CGTH-W-1) is reported as greater than 10.2 µM. It also gave an IC50 (LC-2-ad) of 9.39 µM, an IC50 (DJM-1) greater than 10.2 µM and an IC50 (TE-12) of 2.42 µM. It also gave an IC50 (CTB-1) greater than 10.2 µM, an IC50 (BE-13) greater than 10.2 µM and an IC50 (D283 Med) greater than 10.2 µM. The IC50 (NCI-H209) was greater than 10.2 µM, the IC50 (EW-18) was greater than 10.2 µM and the IC50 (CTV-1) was 6.3 µM. For the same compound, the IC50 (GOTO) was greater than 10.2 µM, the IC50 (D-502MG) was greater than 10.2 µM and the IC50 (Calu-6) was greater than 10.2 µM. For the same compound, the IC50 (GCIY) was greater than 10.2 µM, the IC50 (TE-8) was 6.44 µM and the IC50 (SK-LMS-1) was greater than 10.2 µM. For the same compound, the IC50 (HD-MY-Z) was 9.44 µM, the IC50 (OMC-1) was greater than 10.2 µM and the IC50 (MFM-223) was greater than 10.2 µM. It also gave an IC50 (SW684) greater than 10.2 µM, an IC50 (MEG-01) greater than 10.2 µM and an IC50 (NOMO-1) greater than 10.2 µM. It also gave an IC50 (ES7) greater than 10.2 µM, an IC50 (NCI-H1581) greater than 10.2 µM and an IC50 (LS-513) greater than 10.2 µM. The IC50 (HDLM-2) was greater than 10.2 µM, the IC50 (CP66-MEL) was greater than 10.2 µM and the IC50 (NCI-H1155) was greater than 10.2 µM. It also gave an IC50 (NTERA-2-cl-D1) of 8.79 µM, an IC50 (BB49-HNC) greater than 10.2 µM and an IC50 (MZ1-PC) of 3.76 µM. The IC50 (NEC8) was greater than 10.2 µM, the IC50 (SBC-1) was greater than 10.2 µM and the IC50 (DB) was greater than 10.2 µM. It also gave an IC50 (NOS-1) of 1.3 µM, an IC50 (Mo) greater than 10.2 µM and an IC50 (A704) greater than 10.2 µM. For the same compound, the IC50 (COLO-684) was greater than 10.2 µM, the IC50 (HT-144) was 3.34 µM and the IC50 (EW-1) was 3.11 µM. The IC50 (EOL1) was greater than 10.2 µM, the IC50 (KE-37) was greater than 10.2 µM and the IC50 (HCC1187) was greater than 10.2 µM. The IC50 (CW-2) was greater than 10.2 µM, the IC50 (RH-1) was greater than 10.2 µM and the IC50 (HC-1) was greater than 10.2 µM. For the same compound, the IC50 (MC116) was greater than 10.2 µM, the IC50 (MZ7-mel) was greater than 10.2 µM and the IC50 (EW-16) was 1.72 µM. For the same compound, the IC50 (IST-SL1) was greater than 10.2 µM, the IC50 (KARPAS-45) was greater than 10.2 µM and the IC50 (EW-24) was greater than 10.2 µM. It also gave an IC50 (SW 962) of 8.13 µM, an IC50 (NMC-G1) of 7.16 µM and an IC50 (KNS-42) greater than 10.2 µM. The IC50 (MZ2-MEL) was 6.62 µM, the IC50 (ES5) was greater than 10.2 µM and the IC50 (SW872) was greater than 10.2 µM. It also gave an IC50 (JVM-2) greater than 10.2 µM, an IC50 (RPMI-8226) greater than 10.2 µM and an IC50 (RS4-11) of 5.79 µM. It also gave an IC50 (RKO) of 8.84 µM, an IC50 (SK-N-DZ) greater than 10.2 µM and an IC50 (LAMA-84) greater than 10.2 µM.
